From ChEMBL document CHEMBL1201862, “PubChem BioAssay data set” (2004)
“And” between values parts separate entries of the source, which are not always exact repeats. Equal values may be shown once.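 48-hour exposure; five concentrations; linearly interpolated endpoints. Here, GI50 denotes the concentration required for 50% inhibition of growth.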 The source made the active and inactive calls. No stated cut-off is given here; in the data, active = GI50 up to about 1.1 µM and inactive = higher.

Columns and labels:
Assay in all cases: NCI anticancer screen, dose series, 48 h
SNB-75 = tested on: SNB-75
SNB-19 = tested on: SNB-19
HOP-62 = tested on: HOP-62
SR = tested on: SR
OVCAR-3 = tested on: OVCAR-3
OVCAR-8 = tested on: OVCAR-8
SN12C = tested on: SN12C
EKVX = tested on: EKVX
SK-MEL-28 = tested on: SK-MEL-28
SF-295 = tested on: SF-295
SF-268 = tested on: SF-268
CAKI-1 = tested on: CAKI-1
HOP-92 = tested on: HOP-92
786-0 = tested on: 786-0
TK-10 = tested on: TK-10
RPMI-8226 = tested on: RPMI-8226
HCT-116 = tested on: HCT-116
A549 = tested on: A549
KM12 = tested on: KM12
NCI-H522 = tested on: NCI-H522

Measured: GI50

N=C(N)SCCc1ccncc1
inactive: SNB-75 > 100 µM | SNB-19 > 100 µM | HOP-62 > 100 µM | SR > 100 µM | OVCAR-3 > 100 µM | OVCAR-8 > 100 µM | SN12C > 100 µM | EKVX > 100 µM | SK-MEL-28 > 100 µM | SF-295 > 100 µM | SF-268 > 100 µM | CAKI-1 > 100 µM | HOP-92 > 100 µM | 786-0 > 100 µM | TK-10 > 100 µM | RPMI-8226 > 100 µM | HCT-116 > 100 µM | A549 > 100 µM | KM12 > 100 µM

COc1ccc(OC)c2sc(N3C(=O)/C(=C/c4ccc(N(C)C)cc4)N=C3c3ccccc3)nc12
inactive: SNB-75 80.5 µM | SNB-19 > 100 µM | HOP-62 > 100 µM | SR 19.6 µM | OVCAR-3 58.2 µM | OVCAR-8 78.5 µM | SN12C 52.5 µM | EKVX > 100 µM | SK-MEL-28 > 100 µM | SF-295 > 100 µM | SF-268 > 100 µM | CAKI-1 > 100 µM | HOP-92 > 100 µM | 786-0 92.3 µM | TK-10 > 100 µM | RPMI-8226 11 µM | HCT-116 34.8 µM | A549 83.6 µM | KM12 52 µM

CCc1[nH]c(=O)c2oc3cc4ccccc4cc3c2c1C(=O)O
inactive: SNB-75 > 10 µM | SNB-19 > 10 µM | SR > 10 µM | OVCAR-3 > 10 µM | OVCAR-8 > 10 µM | SN12C > 10 µM | EKVX > 10 µM | SF-295 > 10 µM | SF-268 > 10 µM | NCI-H522 > 10 µM | HOP-92 > 10 µM | 786-0 > 10 µM | TK-10 > 10 µM | HCT-116 > 10 µM | A549 > 10 µM | KM12 > 10 µM

O=S(OC12CC3CC(CC(C3)C1)C2)c1cc(Cl)cc(Cl)c1OCc1ccccc1 (stereo not given)
inactive: SNB-75 > 100 µM | SNB-19 > 100 µM | HOP-62 > 100 µM | SR > 100 µM | OVCAR-3 > 100 µM | SN12C > 100 µM | EKVX > 100 µM | SK-MEL-28 > 100 µM | SF-268 > 100 µM | NCI-H522 19 µM | TK-10 > 100 µM | HCT-116 > 100 µM | KM12 > 100 µM

CCC(C)[C@H]1C(=O)N=C(N)N1C(=O)OCc1ccccc1 (stereo not given in full)
inactive: SNB-75 > 100 µM | SNB-19 > 100 µM | HOP-62 > 100 µM | SR > 100 µM | OVCAR-3 > 100 µM | OVCAR-8 > 100 µM | SN12C > 100 µM | EKVX > 100 µM | SK-MEL-28 > 100 µM | SF-295 > 100 µM | SF-268 > 100 µM | NCI-H522 > 100 µM | CAKI-1 > 100 µM | 786-0 > 100 µM | TK-10 > 100 µM | RPMI-8226 > 100 µM | HCT-116 > 100 µM | KM12 > 100 µM

CCN(CC)CC1CCCCCCCCCCC1=O (stereo not given)
inactive: SNB-75 42.3 µM | SNB-19 > 100 µM | HOP-62 > 100 µM | SR > 100 µM | OVCAR-3 > 100 µM | OVCAR-8 > 100 µM | SN12C > 100 µM | EKVX > 100 µM | SK-MEL-28 > 100 µM | SF-295 > 100 µM | SF-268 > 100 µM | NCI-H522 > 100 µM | 786-0 > 100 µM | TK-10 > 100 µM | RPMI-8226 > 100 µM | HCT-116 > 100 µM | A549 > 100 µM | KM12 > 100 µM

COc1ccc(C(C2=C(O)COC2=O)c2cc3c(cc2O)OCO3)cc1OC (stereo not given)
inactive: SNB-75 > 100 µM | SNB-19 > 100 µM | HOP-62 > 100 µM | SR > 100 µM | OVCAR-3 > 100 µM | OVCAR-8 > 100 µM | SN12C > 100 µM | EKVX > 100 µM | SK-MEL-28 > 100 µM | SF-295 > 100 µM | SF-268 > 100 µM | CAKI-1 > 100 µM | HOP-92 > 100 µM | 786-0 > 100 µM | TK-10 > 100 µM | RPMI-8226 > 100 µM | HCT-116 > 100 µM | A549 > 100 µM | KM12 > 100 µM

COC(=O)C1Cc2cc3c(cc2C1)CCC3
inactive: SNB-75 > 100 µM | SNB-19 > 100 µM | HOP-62 > 100 µM | SR > 100 µM | OVCAR-3 > 100 µM | OVCAR-8 > 100 µM | SN12C > 100 µM | EKVX > 100 µM | SK-MEL-28 > 100 µM | SF-295 > 100 µM | SF-268 > 100 µM | CAKI-1 > 100 µM | HOP-92 34 µM | 786-0 > 100 µM | TK-10 3.65 µM | RPMI-8226 > 100 µM | HCT-116 > 100 µM | A549 > 100 µM | KM12 > 100 µM

CC(C)C(=O)OCN(C)c1nc(N(C)COC(=O)C(C)C)nc(N(C)COC(=O)C(C)C)n1
inactive: SNB-75 17.8 µM | SNB-19 42.1 µM | HOP-62 33.2 µM | SR 22.8 µM | OVCAR-3 36.6 µM | OVCAR-8 19.8 µM | SN12C 28.4 µM | EKVX > 100 µM | SK-MEL-28 19.8 µM | SF-295 27.3 µM | SF-268 > 10 µM | NCI-H522 18.3 µM | CAKI-1 34.5 µM | 786-0 28.5 µM | TK-10 85.7 µM | RPMI-8226 22.8 µM | HCT-116 32.1 µM | A549 43.1 µM | KM12 24.2 µM

O=c1cc(-c2ccccc2)nc2[nH]ccn12
inactive: SNB-75 6.25 µM | SNB-19 > 10 µM | HOP-62 > 10 µM | SR > 10 µM | OVCAR-3 > 10 µM | OVCAR-8 > 10 µM | SN12C > 10 µM | EKVX > 10 µM | SK-MEL-28 > 10 µM | SF-295 > 10 µM | SF-268 > 10 µM | NCI-H522 > 10 µM | CAKI-1 > 10 µM | TK-10 > 10 µM | RPMI-8226 > 10 µM | HCT-116 > 10 µM | A549 > 10 µM | KM12 > 10 µM

OC(CBr)C(O)C(O)C(O)CBr (stereo not given)
inactive: HOP-62 28.1 µM and 28.3 µM | SR > 100 µM | OVCAR-3 > 55.1 µM | OVCAR-8 > 100 µM and 59.4 µM | EKVX > 75.7 µM | SK-MEL-28 > 92.7 µM | NCI-H522 > 67.1 µM and > 48.6 µM | 786-0 13.7 µM | TK-10 > 100 µM | RPMI-8226 > 65.8 µM and > 38.5 µM | A549 19 µM and 36.9 µM | KM12 > 100 µM and > 60 µM
